Measurements as given in paper PMC12691779, “Creatine and Taurine as Novel Competitive Inhibitors of Acetylcholinesterase: A Biochemical Basis for Nutritional Modulation of Brain Function” (International Journal of Molecular Sciences, 2025).
Where two headings read alike, the source gives them in different places.

Columns and labels:
[1] = molecular target: Human acetylcholinesterase (AChE; EC 3.1.1.7) (Homo sapiens, UniProt P22303); assay: modified Ellman assay with purified AChE, Lineweaver-Burk kinetics; assay type: biochemical
[2] = substrate: CC(=O)SCC[N+](C)(C)C; assay: Km from modified Ellman assay, Lineweaver-Burk (enzyme only); assay type: biochemical, Homo sapiens; conditions: active site (substrate)
Source text: Km from modified Ellman assay, Lineweaver-Burk (enzyme only) on Human acetylcholinesterase (AChE; EC 3.1.1.7) | The reaction system contained acetylthiocholine (ACth) as the substrate

Molecule: NCCS(=O)(=O)O [TA, Taurine]
- Ki ([1]; read-out: Taurine 0.15 mM): 274 ± 5.94 µM

Molecule: CN(CC(=O)O)C(=N)N [CR, Creatine]
- Ki ([1]; read-out: Creatine 0.15 mM): 199 ± 5.21 µM

B1: Human acetylcholinesterase (AChE; EC 3.1.1.7) (Homo sapiens) (protein)
chain: EGREDAELLVTVRGGRLRGIRLKTPGGPVSAFLGIPFAEPPMGPRRFLPPEPKQPWSGVVDATTFQSVCYQYVDTLYPGFEGTEMWNPNRELSEDCLYLNVWTPYPRPTSPTPVLVWIYGGGFYSGASSLDVYDGRFLVQAERTVLVSMNYRVGAFGFLALPGSREAPGNVGLLDQRLALQWVQENVAAFGGDPTSVTLFGESAGAASVGMHLLSPPSRGLFHRAVLQSGAPNGPWATVGMGEARRRATQLAHLVGCPPGGTGGNDTELVACLRTRPAQVLVNHEWHVLPQESVFRFSFVPVVDGDFLSDTPEALINAGDFHGLQVLVGVVKDEGSYFLVYGAPGFSKDNESLISRAEFLAGVRVGVPQVSDLAAEAVVLHYTDWLHPEDPARLREALSDVVGDHNVVCPVAQLAGRLAAQGARVYAYVFEHRASTLSWPLWMGVPHGYEIEFIFGIPLDPSRNYTAEEKIFAQRLMRYWANFARTGDPNEPRDPKAPQWPPYTAGAQQYVSLDLRPLEVRRGLRAQACAFWNRFLPKLLSATDTLDEAERQWKAEFHRWSSYMVHWKNQFDHYSKQDRCSDL
- Km [2]: 1.73 ± 0.0147 µM
- Vmax [2]: 131 µM/min
